Laboratory results from article PMC11252418, “Specific glycine-dependent enzyme motion determines the potency of conformation selective inhibitors of threonyl-tRNA synthetase” (Communications Biology, 2024).
Where “and” joins values, the source holds several entries; their conditions need not be identical. Equal entries are not always repeated. Where two headings read alike, the source gives them in different places.

Key:
EcThrRS_G463A [1] = target: T1, EcThrRS_G463A (Escherichia coli, UniProt P0A8M3, G463A); assay: Thermal shift assay (TSA); type: binding
T1 construct: The E. coli ThrRS (residues 242-642, Supplementary Note 1) wild type; 6xHis (C); made in house; host or cells: E. coli BL21 (DE3)
T1 sequence (P0A8M3 242-642 G463A): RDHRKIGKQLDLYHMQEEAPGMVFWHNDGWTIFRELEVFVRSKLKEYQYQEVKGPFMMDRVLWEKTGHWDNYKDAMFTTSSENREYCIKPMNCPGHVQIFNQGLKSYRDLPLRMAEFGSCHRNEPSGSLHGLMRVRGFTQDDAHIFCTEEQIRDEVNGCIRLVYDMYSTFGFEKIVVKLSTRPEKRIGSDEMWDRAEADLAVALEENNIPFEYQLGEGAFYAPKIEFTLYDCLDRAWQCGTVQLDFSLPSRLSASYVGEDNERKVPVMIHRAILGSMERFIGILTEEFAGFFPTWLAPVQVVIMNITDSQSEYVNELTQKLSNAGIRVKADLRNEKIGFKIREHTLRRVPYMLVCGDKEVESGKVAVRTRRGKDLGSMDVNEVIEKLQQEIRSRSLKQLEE
Method: (§1) The EcThrRS_WT and L489M/G463S/G463S_Q484A/G463A/A316N mutant proteins, ObaO_WT and ObaO_S464G mutant proteins were prepared at 2 μM in buffer containing 25 mM Tris-HCl pH 7.5, 200 mM NaCl, and 20 μM OB (GlpBio, US) or BN (GlpBio, US) or ddH2O in equal volumes since the compounds were diluted with ddH2O to 1 mM as stocks. […] SYPRO orange dye (Sigma, USA) was diluted in assay buffer containing 25 mM Tris-HCl pH 7.5 and 200 mM NaCl to a 40× concentration, and was added to the mixture to a final 4× concentration. Aliquots (20 μL) were added to a 96-well PCR plate. After complete mixing, the final solutions were heated from 25 to 95 °C at a rate of 0.015 °C/s, and fluorescence signals were monitored by QuantStudio 3 (Applied Biosystems by Thermo Fisher Scientific, USA). The melting temperature (Tm) was calculated through a previously established method[56],[57].

EcThrRS_L489M [2] = target: T2, EcThrRS_L489M (Escherichia coli, UniProt P0A8M3, L489M); assay: Thermal shift assay (TSA); type: binding
T2 construct: The E. coli ThrRS (residues 242-642, Supplementary Note 1) wild type; 6xHis (C); made in house; host or cells: E. coli BL21 (DE3)
T2 sequence (P0A8M3 242-642 L489M): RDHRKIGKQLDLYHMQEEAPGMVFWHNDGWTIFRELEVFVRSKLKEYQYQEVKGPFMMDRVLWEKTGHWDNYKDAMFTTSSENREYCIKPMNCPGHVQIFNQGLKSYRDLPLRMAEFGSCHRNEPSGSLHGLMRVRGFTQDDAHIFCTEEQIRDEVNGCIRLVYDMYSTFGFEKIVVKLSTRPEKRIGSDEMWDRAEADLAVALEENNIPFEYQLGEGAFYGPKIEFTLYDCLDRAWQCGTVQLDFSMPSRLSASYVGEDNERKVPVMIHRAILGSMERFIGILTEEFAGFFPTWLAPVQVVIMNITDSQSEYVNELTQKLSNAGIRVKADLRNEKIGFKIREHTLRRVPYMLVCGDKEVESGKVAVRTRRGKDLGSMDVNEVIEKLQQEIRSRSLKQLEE
Method: as §1

EcThrRS_G463S_Q484A = target: T3, EcThrRS_G463S_Q484A (Escherichia coli, UniProt P0A8M3, G463S/Q484A); assay: Thermal shift assay (TSA); type: binding
T3 construct: The E. coli ThrRS (residues 242-642, Supplementary Note 1) wild type; 6xHis (C); made in house; host or cells: E. coli BL21 (DE3)
T3 sequence (P0A8M3 242-642 G463S/Q484A): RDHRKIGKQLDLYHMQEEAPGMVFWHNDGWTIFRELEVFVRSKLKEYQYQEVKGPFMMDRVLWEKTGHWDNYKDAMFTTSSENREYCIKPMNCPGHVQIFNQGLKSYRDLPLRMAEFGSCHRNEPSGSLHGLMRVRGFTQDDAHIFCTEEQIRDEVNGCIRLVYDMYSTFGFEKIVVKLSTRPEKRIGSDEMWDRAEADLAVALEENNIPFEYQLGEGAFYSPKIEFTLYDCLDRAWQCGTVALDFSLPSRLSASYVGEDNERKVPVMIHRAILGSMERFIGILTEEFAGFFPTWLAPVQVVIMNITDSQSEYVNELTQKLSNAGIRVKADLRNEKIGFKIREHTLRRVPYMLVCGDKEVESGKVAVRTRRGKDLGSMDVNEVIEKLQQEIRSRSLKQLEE
Method: as §1

EcThrRS_G463S [3] = target: T4, EcThrRS_G463S (Escherichia coli, UniProt P0A8M3, G463S); assay: Thermal shift assay (TSA); type: binding
T4 construct: The E. coli ThrRS (residues 242-642, Supplementary Note 1) wild type; 6xHis (C); made in house; host or cells: E. coli BL21 (DE3)
T4 sequence (P0A8M3 242-642 G463S): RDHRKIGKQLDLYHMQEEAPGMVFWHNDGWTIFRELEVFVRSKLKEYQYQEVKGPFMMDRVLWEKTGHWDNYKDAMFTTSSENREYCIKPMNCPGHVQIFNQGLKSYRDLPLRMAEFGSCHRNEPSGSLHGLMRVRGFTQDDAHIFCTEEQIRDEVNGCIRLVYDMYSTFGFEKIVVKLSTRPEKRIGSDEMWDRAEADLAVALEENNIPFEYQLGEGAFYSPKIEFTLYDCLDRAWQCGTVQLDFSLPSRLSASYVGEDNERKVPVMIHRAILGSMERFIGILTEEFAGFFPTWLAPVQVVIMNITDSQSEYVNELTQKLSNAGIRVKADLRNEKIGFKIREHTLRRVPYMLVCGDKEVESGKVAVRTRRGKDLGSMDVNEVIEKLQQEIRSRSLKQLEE
Method: as §1

EcThrRS_A316N [4] = target: T5, EcThrRS_A316N (Escherichia coli, UniProt P0A8M3, A316N); assay: Thermal shift assay (TSA); type: binding
T5 construct: The E. coli ThrRS (residues 242-642, Supplementary Note 1) wild type; 6xHis (C); made in house; host or cells: E. coli BL21 (DE3)
T5 sequence (P0A8M3 242-642 A316N): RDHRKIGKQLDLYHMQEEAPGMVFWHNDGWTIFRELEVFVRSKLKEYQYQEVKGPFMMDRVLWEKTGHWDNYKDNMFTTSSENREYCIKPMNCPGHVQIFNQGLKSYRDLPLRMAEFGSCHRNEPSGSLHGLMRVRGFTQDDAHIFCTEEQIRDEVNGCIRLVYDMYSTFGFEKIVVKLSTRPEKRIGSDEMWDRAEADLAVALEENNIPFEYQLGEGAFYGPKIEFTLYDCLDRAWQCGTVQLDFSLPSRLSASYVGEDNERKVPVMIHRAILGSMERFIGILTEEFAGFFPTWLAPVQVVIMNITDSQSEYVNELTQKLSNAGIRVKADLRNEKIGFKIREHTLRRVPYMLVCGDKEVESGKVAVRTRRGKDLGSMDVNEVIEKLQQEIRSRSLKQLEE
Method: as §1

EcThrRS_G463A [5] = target: T1, EcThrRS_G463A; assay: ATP hydrolysis assay; type: biochemical; details: ATP hydrolysis activity
Method: (§2) 200 nM EcThrRS wide type and mutants, ObaO and ObaO_S464G mutant were incubated with serially diluted OB (0 to 10 μM for EcThrRS, 0 to 40 μM for ObaO) in a buffer containing 25 mM HEPES pH 7.5, 50 mM NaCl, 40 mM MgCl2, 30 mM KCl, 0.01 mg/mL bovine serum albumin (BSA), and 0.004% Tween-20 at 37 °C for 4 h and then mixed 1:1 with a substrate mixture containing 4 μM ATP, 40 μM L-threonine, 25 mM HEPES pH 7.5, 50 mM NaCl, 40 mM MgCl2, 30 mM KCl, 0.01 mg/mL BSA, and 0.004% Tween-20. The ATP hydrolysis reaction was performed at 37 °C for 4 h.
(§3) After incubation, the detection solution from the Kinase-Glo® luminescent kit (Promega, USA) was added to the reaction system at a 1:1 ratio, and the mixture was gently shaken for 10 min. The chemiluminescence signal was measured using a microplate reader (Tecan, USA). All experiments were performed in four replicates. The data were processed using GraphPad Prism 8 software.

EcThrRS_L489M [6] = target: T2, EcThrRS_L489M; assay: ATP hydrolysis assay; type: biochemical; details: for ATP hydrolysis activity, inhibitory curve data point: OB, replicates, sheet Fig.2b
Method: as §2, §3

EcThrRS_G463S [7] = target: T4, EcThrRS_G463S; assay: ATP hydrolysis assay; type: biochemical; details: for ATP hydrolysis activity, inhibitory curve data point: OB, replicates, sheet Fig.2b
Method: as §2, §3

EcThrRS_A316N [8] = target: T5, EcThrRS_A316N; assay: ATP hydrolysis assay; type: biochemical; details: for ATP hydrolysis activity, inhibitory curve data point: OB, replicates, sheet Fig.S4b
Method: as §2, §3

[9] = 2 μM protein, 20 μM compound, mean n = 4, read-out: ΔTm (increase of Tm)

Compound: O=C(N[C@@H]1C(=O)O[C@@H]1Cc1ccc([N+](=O)[O-])cc1)c1cccc(O)c1O [OB, Obafluorin]
- ΔTm at 20 µM (EcThrRS_G463A [1]; [9]): 19.5 °C
- ΔTm less than that of EcThrRS_WT (EcThrRS_G463A [1]; EcThrRS_G463A vs WT, same compound): 14.0 °C
- ΔTm less than that increased by 36j (EcThrRS_G463A [1]; difference OB vs 36j on EcThrRS_G463A): 1.3 °C
- ΔTm at 20 µM (EcThrRS_G463A [1]; source data sheet Fig.5a, ThrRS_G463A, read-out: ΔTm, single replicates): 20.4 °C
- ΔTm at 20 µM (EcThrRS_L489M [2]; [9]): 22.6 °C
- ΔTm at 20 µM (EcThrRS_L489M [2]; source data sheet Fig.2a, ThrRS_L489M, read-out: ΔTm, single replicates): 23 °C
- ΔTm at 20 µM (EcThrRS_G463S_Q484A; [9]): 17.2 °C
- ΔTm less than the effect of 36j (EcThrRS_G463S_Q484A; difference OB vs 36j on EcThrRS_G463S_Q484A): 10 °C
- ΔTm at 20 µM (EcThrRS_G463S_Q484A; source data sheet Fig.3c, ThrRS_G463S_Q484A, read-out: ΔTm, single replicates): 17.5 °C
- ΔTm at 20 µM (EcThrRS_G463S [3]; [9]): 13.3 °C
- ΔTm at 20 µM (EcThrRS_G463S [3]; source data sheet Fig.2a, ThrRS_G463S, read-out: ΔTm, single replicates): 16.1 °C
- ΔTm at 20 µM (EcThrRS_A316N [4]; [9]): 33.4 °C
- ΔTm at 20 µM (EcThrRS_A316N [4]; source data sheet Fig.S4a, ThrRS_A316N, read-out: ΔTm, single replicates): 33.4 °C
- inhibitory effect (EcThrRS_G463A [5]): no inhibitory effect
- IC50 (EcThrRS_L489M [6]; ATP hydrolysis activity): 215 nM
- ATP hydrolysis activity, inhibitory curve data point (EcThrRS_L489M [6]; Log10 Conc. 3.097, L489M): 14.911 and 30.795 and 20.792 and 22.166
- ATP hydrolysis activity, inhibitory curve data point (EcThrRS_L489M [6]; Log10 Conc. 3.398, L489M): 25.404 and -0.594 and -13.763 and 3.682
- ATP hydrolysis activity, inhibitory curve data point (EcThrRS_L489M [6]; Log10 Conc. 3.699, L489M): 26.774 and 18.620 and -26.210 and 6.396
- ATP hydrolysis activity, inhibitory curve data point (EcThrRS_L489M [6]; Log10 Conc. 4.000, L489M): 5.096 and 5.493 and 1.083 and 8.709
- inhibition at 5 µM (EcThrRS_G463S [7]; 5 μM OB): ~10%
- inhibitory activity (EcThrRS_G463S [7]; ATP hydrolysis activity): poor activity
- ATP hydrolysis activity, inhibitory curve data point (EcThrRS_G463S [7]; Log10 Conc. 1.279, G463S): 106.793 and 98.818 and 94.863 and 99.954
- ATP hydrolysis activity, inhibitory curve data point (EcThrRS_G463S [7]; Log10 Conc. 1.597, G463S): 100.752 and 93.821 and 90.230 and 89.239
- ATP hydrolysis activity, inhibitory curve data point (EcThrRS_G463S [7]; Log10 Conc. 1.892, G463S): 119.110 and 112.303 and 110.507 and 107.832
- ATP hydrolysis activity, inhibitory curve data point (EcThrRS_G463S [7]; Log10 Conc. 2.193, G463S): 113.765 and 106.055 and 104.056 and 103.914
- ATP hydrolysis activity, inhibitory curve data point (EcThrRS_G463S [7]; Log10 Conc. 2.495, G463S): 113.955 and 101.766 and 100.028 and 98.945
- ATP hydrolysis activity, inhibitory curve data point (EcThrRS_G463S [7]; Log10 Conc. 2.796, G463S): 114.391 and 100.345 and 101.496 and 101.074
- ATP hydrolysis activity, inhibitory curve data point (EcThrRS_G463S [7]; Log10 Conc. 3.097, G463S): 109.765 and 91.814 and 95.122 and 94.032
- ATP hydrolysis activity, inhibitory curve data point (EcThrRS_G463S [7]; Log10 Conc. 3.398, G463S): 99.125 and 85.681 and 84.901 and 83.398
- ATP hydrolysis activity, inhibitory curve data point (EcThrRS_G463S [7]; Log10 Conc. 3.699, G463S): 98.676 and 85.750 and 87.909 and 87.887
- ATP hydrolysis activity, inhibitory curve data point (EcThrRS_G463S [7]; Log10 Conc. 4.000, G463S): 100.800 and 85.432 and 86.068 and 84.275
- IC50 (EcThrRS_A316N [8]; ATP hydrolysis activity): 848 nM
- ATP hydrolysis activity, inhibitory curve data point (EcThrRS_A316N [8]; Log10 Conc. 0.690, A316N): 85.962 and 86.560 and 99.695 and 84.767
- ATP hydrolysis activity, inhibitory curve data point (EcThrRS_A316N [8]; Log10 Conc. 0.991, A316N): 88.637 and 98.163 and 100.359 and 100.821
- ATP hydrolysis activity, inhibitory curve data point (EcThrRS_A316N [8]; Log10 Conc. 1.290, A316N): 94.677 and 95.220 and 104.669 and 107.135
- ATP hydrolysis activity, inhibitory curve data point (EcThrRS_A316N [8]; Log10 Conc. 1.591, A316N): 79.114 and 84.617 and 87.973 and 87.592
- ATP hydrolysis activity, inhibitory curve data point (EcThrRS_A316N [8]; Log10 Conc. 1.892, A316N): 95.097 and 93.442 and 93.401 and 99.302
- ATP hydrolysis activity, inhibitory curve data point (EcThrRS_A316N [8]; Log10 Conc. 2.193, A316N): 78.735 and 83.708 and 90.525 and 92.235
- ATP hydrolysis activity, inhibitory curve data point (EcThrRS_A316N [8]; Log10 Conc. 2.494, A316N): 68.683 and 74.410 and 84.890 and 82.431
- ATP hydrolysis activity, inhibitory curve data point (EcThrRS_A316N [8]; Log10 Conc. 2.796, A316N): 50.753 and 55.935 and 67.595 and 73.554
- ATP hydrolysis activity, inhibitory curve data point (EcThrRS_A316N [8]; Log10 Conc. 3.097, A316N): 29.054 and 40.656 and 45.720 and 53.072
- ATP hydrolysis activity, inhibitory curve data point (EcThrRS_A316N [8]; Log10 Conc. 3.398, A316N): -3.828 and 7.860 and 7.462 and 26.771
- ATP hydrolysis activity, inhibitory curve data point (EcThrRS_A316N [8]; Log10 Conc. 3.699, A316N): 7.311 and 15.246 and 17.984 and 36.982
